This is an account of results in publication PMC5786306, “An AKAP-Lbc-RhoA interaction inhibitor promotes the translocation of aquaporin-2 to the plasma membrane of renal collecting duct principal cells” (PLoS ONE, 2018).

“Also recorded” adds a separate entry of the source. Read-outs that look alike come from different tables or passages of the source.

Data set [1] has as its target T1, interaction of AKAP-Lbc/DHPH and RhoA (Homo sapiens, UniProt P61586).
T1 construct: His6-AKAP-Lbc/DHPH (aa 1972–2342 of human AKAP-Lbc; NP_006729.4); made in house
Put plainly: Homogeneous time-resolved fluorescence (HTRF) assay. The format is binding. The text has this:
Fig 2 The small molecule Scaff10-8 inhibits the interaction of the DH domain of AKAP-Lbc and RhoA. (A). Principle of homogenous time-resolved fluorescence (HTRF) assay. Recombinant His-AKAP-Lbc/DHPH and GST-RhoA were generated. The tags are recognized by specific antibodies coupled to fluorescent dyes. When the two proteins interact, donor and acceptor dyes of the antibodies are in close proximity, energy transfer occurs upon excitation at 320 nm and a FRET signal is detected (665 nm). If a compound disrupts the interaction of the DHPH domain and RhoA, the proximity of the fluorescent moieties remains insufficient for a FRET signal to occur. […] As expected, excess untagged Rho decreases the binding between GST-RhoA and His-AKAP-Lbc/DHPH in a dose-dependent manner (lower left panel). […] (C) The influence of Scaff10-8 on the interaction of RhoA with the recombinant DH domain of AKAP-Lbc in the absence of the PH domain was determined by Alpha screen. […] The IC50 value is indicated.
The assay was essentially carried out as described. Scaff10 derivatives were added to His6-AKAP-Lbc/DHPH protein (250 nM final concentration) in HTRF buffer (PBS; 4 mM MgCl2; 0.05% Tween 20) in 384 well plates (Proxiplate-384 Plus, white, #6008289; Perkin Elmer LAS, Rodgau, Germany). Concentrations of Scaff10 derivatives ranged between 1.56–200 μM (2% DMSO final concentration); HTRF buffer with 2% DMSO served as a control. GST-RhoA (30 nM final concentration) in HTRF buffer and anti-GST antibody coupled to terbium (donor) and anti-His6-tag antibody coupled to XL665 (acceptor) were added to all wells (final antibody concentration: 2 μg/ml). After 1 h incubation at room temperature in the dark, FRET signals were recorded at 620 and 665 nm using a Genios Pro plate reader (Tecan Austria GmbH, Grödig, AT) and the ratios of […] to 620 nm were calculated. Wells containing no compound were set to 100% interaction of AKAP-Lbc/DHPH with RhoA, wells containing GST-RhoA only (without His6-AKAP-Lbc/DHPH) were set to 0% interaction. To exclude any interference of the tags and/or antibodies with Scaff10 derivatives, a His6-GST fusion protein replaced the two tagged proteins in a control assay. Wells containing His6-GST fusion protein were set to 100% interaction of His6-GST, wells containing no fusion protein were set to 0% interaction.
On the technique in general: Time-resolved FRET reads energy transfer from a long-lived donor to a nearby acceptor.

A further data set is described as follows: Nephelometric solubility. Format: physicochemical. The conditions noted are these: DMEM + 10 % FCS, plasma or biological fluid, kinetic from dmso stock, maximal solubility in DMEM + 10 % FCS. The protocol:
Solubility of Scaff10 derivatives was assessed nephelometrically. Scaff10 derivatives are moderately to poorly soluble in aqueous solutions due to their large number of aromatic rings having lipophilic character. Details about NMR, LC/MS and HPLC characterization steps are given in the Supplemental Information.
Suppl. Tab. 3: Overview of all 55 Scaff10 derivatives.Structures labeld with 1 were commercially obtained. MW = molecular weight. logP = calculated partition coefficient (using […]
Solubility was assessed nephelometrically in DMEM + 10 % FCS + Scaff10 derivative with either 0.3 or 2 % DMSO
final concentration; values in µM indicate maximal solubility of the compound under the respective condition. Yield in % indicates total yield of the last step of chemical synthesis
for each of Scaff10 derivatives. n.d. = not determined. n.i. = not indicated.
Scaff10 MW Number of exp. 2 % DMSO 0.3 % DMSO Scaff10 Yield
Structure log P Disruption of the PPI IC50 [µM]
derivative [g/mol] in dupl. [µM] [µM] class [%]

For data set [2], the target named is T2, interaction of the DH domain of AKAP-Lbc and RhoA (Homo sapiens, UniProt P61586).
T2 construct: The proteins used were N-terminally His6-tagged AKAP-Lbc-DH domain
T2 sequence (P61586 whole entry, the tested form may be a part): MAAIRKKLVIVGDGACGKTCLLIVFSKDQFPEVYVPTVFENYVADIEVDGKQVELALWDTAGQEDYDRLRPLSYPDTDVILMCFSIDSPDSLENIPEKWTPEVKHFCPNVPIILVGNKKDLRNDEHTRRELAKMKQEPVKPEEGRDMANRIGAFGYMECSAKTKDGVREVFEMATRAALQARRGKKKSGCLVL
In words: Alpha screen assay. Format: binding. The protocol: Assays were performed according to the manufacturer’s protocol (PerkinElmer) with minor modifications. All reagents were diluted in buffer containing 25 mM Hepes, pH 7.4, 100 mM NaCl, 0.1% bovine serum albumin, 0.05% CHAPS and 50 μM GDP and allowed to equilibrate to room temperature before addition to plates. […] The proteins used were N-terminally His6-tagged AKAP-Lbc-DH domain and C-terminally biotinylated RhoA. […] 8 μL of assay buffer containing donor and acceptor beads at 1:400 dilution was then added, the plate was incubated in the dark for 60 min and then read on a PheraStar FS plate reader (BMG Labtech, Germany) using an AlphaScreen^TM 680 excitation/570 emission filter set.
11.6 μL of a solution containing 100 nM RhoA and 200 nM AKAP13 in assay buffer was added and incubated with the compounds for 30 min at RT in foil-sealed plates. 8 μL of assay buffer containing donor and acceptor beads at 1:400 dilution was added. The plate was incubated in the dark for 60 min and then read on a PheraStar FS plate reader.

Where [3] appears, read: 0.3 % DMSO final, read-out: Solubility 0.3 % DMSO.
The mark [4] stands for this setting: 2 % DMSO final, read-out: Solubility 2 % DMSO.

T1 sequence (P61586 whole entry, the tested form may be a part): as above

On to `COc1ccc(-c2coc3cc4oc(=O)c(C)c(C)c4cc23)cc1` [Scaff10, 3-(4-Methoxyphenyl)-5,6-dimethyl-furo[3,2-g]chromen-7-one], for which the “inhibitory effect on the AKAP-Lbc/DHPH-RhoA interaction” value in data set [1] (HTRF; result in words) is “no inhibitory effect”. Moreover, in data set [1] (read-out: IC50 ± SEM; Table 1; HTRF; '-' = no IC50, inactive (n.d. is used separately in S3 Table)), the IC50 (in general, the concentration that inhibits the measured activity by half) was more than 200 µM. Besides, the solubility (as a rule, the dissolved amount per volume that the medium holds) amounted to 75 µM in the data set “Nephelometric solubility” (setting [3]) and 85 µM in the data set “Nephelometric solubility” (setting [4]).

On to `CCOC(=O)CCc1c(C)c2ccc(OCC(=O)c3ccc(OC)cc3)cc2oc1=O` [Scaff10-7, Ethyl 3-[7-[2-(4-methoxyphenyl)-2-oxo-ethoxy]-4-methyl-2-oxo-chromen-3-yl]propanoate], for which the “inhibitory effect on the AKAP-Lbc/DHPH-RhoA interaction” value in data set [1] (HTRF; result in words) is reported as “did not interfere; also recorded: without inhibitory effects”. The IC50 in data set [1] (Table 1; HTRF; '-' = no IC50, inactive (n.d. is used separately in S3 Table); read-out: IC50 ± SEM) was more than 200 µM. Besides, the solubility in the data set “Nephelometric solubility” (setting [3]) was found to be 40 µM; in “Nephelometric solubility” (setting [4]) it was 70 µM. Moreover, the “inhibitory effect in Alpha screen” value in data set [2] (result in words) is reported as “without inhibitory effects”.

With `COc1ccc(-c2coc3cc4oc(=O)c(CCC(=O)O)c(C)c4cc23)cc1` [Scaff10-8, 3-[3-(4-Methoxyphenyl)-5-methyl-7-oxo-furo[3,2-g]chromen-6-yl] propanoic acid], the IC50 in data set [1] (IC50 ± SEM, Table 1; HTRF; '-' = no IC50, inactive (n.d. is used separately in S3 Table)) was found to be 34.1 ± 1.7 µM; in data set [2], 42 µM. Also, the solubility in “Nephelometric solubility” (setting [3]) turned out to be 30 µM; in the data set “Nephelometric solubility” (setting [4]) it was 50 µM.
